Experimental data taken from PubChem BioAssay (NCI).
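Protocol summary: plate cells (96-well), add compound at 5 concentrations, incubate 48 h, interpolate endpoints linearly. TGI is the concentration that stops growth completely.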

Assays:
Assay in all cases: inhibition of tumour cell growth, NCI panel, 48 h
786-0 renal = system: 786-0 renal
A498 renal = system: A498 renal
A549 NSCLC = system: A549 NSCLC
ACHN renal = system: ACHN renal
BT-549 breast = system: BT-549 breast
CAKI-1 renal = system: CAKI-1 renal
CCRF-CEM leukemia = system: CCRF-CEM leukemia
COLO 205 colon = system: COLO 205 colon
EKVX NSCLC = system: EKVX NSCLC
HCT-116 colon = system: HCT-116 colon
HCT-15 colon = system: HCT-15 colon
HL-60(TB) leukemia = system: HL-60(TB) leukemia
HOP-62 NSCLC = system: HOP-62 NSCLC
HOP-92 NSCLC = system: HOP-92 NSCLC
HS 578T breast = system: HS 578T breast
HT29 colon = system: HT29 colon
IGROV1 ovarian = system: IGROV1 ovarian
K-562 leukemia = system: K-562 leukemia
KM12 colon = system: KM12 colon
LOX IMVI melanoma = system: LOX IMVI melanoma
M14 melanoma = system: M14 melanoma
MALME-3M melanoma = system: MALME-3M melanoma
MCF7 breast = system: MCF7 breast
MDA-MB-231 breast = system: MDA-MB-231 breast
MDA-MB-435 = system: MDA-MB-435
MDA-N = system: MDA-N
NCI-H226 lung = system: NCI-H226 lung
NCI-H460 lung = system: NCI-H460 lung
NCI-H522 lung = system: NCI-H522 lung
NCI/ADR-RES ovarian = system: NCI/ADR-RES ovarian
OVCAR-3 ovarian = system: OVCAR-3 ovarian
OVCAR-4 ovarian = system: OVCAR-4 ovarian
OVCAR-5 ovarian = system: OVCAR-5 ovarian
OVCAR-8 ovarian = system: OVCAR-8 ovarian
PC-3 prostate = system: PC-3 prostate
RPMI-8226 leukemia = system: RPMI-8226 leukemia
RXF 393 renal = system: RXF 393 renal
SF-268 CNS = system: SF-268 CNS
SF-295 CNS = system: SF-295 CNS
SF-539 CNS = system: SF-539 CNS
SK-MEL-2 melanoma = system: SK-MEL-2 melanoma
SK-MEL-28 melanoma = system: SK-MEL-28 melanoma
SK-OV-3 ovarian = system: SK-OV-3 ovarian
SN12C renal = system: SN12C renal
SNB-19 CNS = system: SNB-19 CNS
SNB-75 CNS = system: SNB-75 CNS
SW-620 colon = system: SW-620 colon
T-47D breast = system: T-47D breast
TK-10 renal = system: TK-10 renal
U251 CNS = system: U251 CNS
UACC-257 melanoma = system: UACC-257 melanoma
UACC-62 melanoma = system: UACC-62 melanoma
UO-31 renal = system: UO-31 renal
DU-145 prostate = system: DU-145 prostate
HCC-2998 colon = system: HCC-2998 colon
MOLT-4 leukemia = system: MOLT-4 leukemia
NCI-H23 lung = system: NCI-H23 lung
SK-MEL-5 melanoma = system: SK-MEL-5 melanoma
SR leukemia = system: SR leukemia

O=C(O)c1cccc(F)c1C(=O)c1ccc2ccccc2c1
TGI (786-0 renal): > 100 µM
TGI (A498 renal): > 100 µM
TGI (A549 NSCLC): > 100 µM
TGI (ACHN renal): > 100 µM
TGI (BT-549 breast): > 100 µM
TGI (CAKI-1 renal): > 100 µM
TGI (CCRF-CEM leukemia): > 100 µM
TGI (COLO 205 colon): 6.1 µM
TGI (EKVX NSCLC): > 100 µM
TGI (HCT-116 colon): > 100 µM
TGI (HCT-15 colon): > 100 µM
TGI (HL-60(TB) leukemia): > 100 µM
TGI (HOP-62 NSCLC): > 100 µM
TGI (HOP-92 NSCLC): > 100 µM
TGI (HS 578T breast): > 100 µM
TGI (HT29 colon): > 100 µM
TGI (IGROV1 ovarian): > 100 µM
TGI (K-562 leukemia): > 100 µM
TGI (KM12 colon): > 100 µM
TGI (LOX IMVI melanoma): > 100 µM
TGI (M14 melanoma): > 100 µM
TGI (MALME-3M melanoma): > 100 µM
TGI (MCF7 breast): > 100 µM
TGI (MDA-MB-231 breast): > 100 µM
TGI (MDA-MB-435): > 100 µM
TGI (MDA-N): > 100 µM
TGI (NCI-H226 lung): > 100 µM
TGI (NCI-H460 lung): > 100 µM
TGI (NCI-H522 lung): > 100 µM
TGI (NCI/ADR-RES ovarian): > 100 µM
TGI (OVCAR-3 ovarian): > 100 µM
TGI (OVCAR-4 ovarian): > 100 µM
TGI (OVCAR-5 ovarian): > 100 µM
TGI (OVCAR-8 ovarian): > 100 µM
TGI (PC-3 prostate): > 100 µM
TGI (RPMI-8226 leukemia): > 100 µM
TGI (RXF 393 renal): > 100 µM
TGI (SF-268 CNS): > 100 µM
TGI (SF-295 CNS): > 100 µM
TGI (SF-539 CNS): > 100 µM
TGI (SK-MEL-2 melanoma): > 100 µM
TGI (SK-MEL-28 melanoma): > 100 µM
TGI (SK-OV-3 ovarian): > 100 µM
TGI (SN12C renal): > 100 µM
TGI (SNB-19 CNS): > 100 µM
TGI (SNB-75 CNS): > 100 µM
TGI (SW-620 colon): > 100 µM
TGI (T-47D breast): > 100 µM
TGI (TK-10 renal): > 100 µM
TGI (U251 CNS): > 100 µM
TGI (UACC-257 melanoma): > 100 µM
TGI (UACC-62 melanoma): > 100 µM
TGI (UO-31 renal): > 100 µM

O=c1[nH]nc(-c2ccccc2)c2[nH]c3c(c12)CCCc1ccccc1-3
TGI (786-0 renal): 28 µM
TGI (A549 NSCLC): 25.6 µM
TGI (ACHN renal): 38.9 µM
TGI (BT-549 breast): 47.4 µM
TGI (CAKI-1 renal): > 100 µM
TGI (CCRF-CEM leukemia): 47.2 µM
TGI (COLO 205 colon): 22.2 µM
TGI (DU-145 prostate): 57.8 µM
TGI (EKVX NSCLC): > 100 µM
TGI (HCC-2998 colon): 28 µM
TGI (HCT-116 colon): 28.5 µM
TGI (HCT-15 colon): 10.4 µM
TGI (HL-60(TB) leukemia): 46.2 µM
TGI (HOP-62 NSCLC): 46.4 µM
TGI (HOP-92 NSCLC): 54.8 µM
TGI (HS 578T breast): 38.7 µM
TGI (HT29 colon): 24.3 µM
TGI (IGROV1 ovarian): 25 µM
TGI (K-562 leukemia): 94.8 µM
TGI (KM12 colon): 23.5 µM
TGI (LOX IMVI melanoma): 33.7 µM
TGI (M14 melanoma): 36.9 µM
TGI (MALME-3M melanoma): 30.9 µM
TGI (MCF7 breast): 50.9 µM
TGI (MDA-MB-231 breast): 52.4 µM
TGI (MDA-MB-435): 29.6 µM
TGI (MDA-N): 29.4 µM
TGI (MOLT-4 leukemia): 33.8 µM
TGI (NCI-H226 lung): 37.5 µM
TGI (NCI-H23 lung): > 100 µM
TGI (NCI-H460 lung): 60 µM
TGI (NCI-H522 lung): 27.1 µM
TGI (NCI/ADR-RES ovarian): 32.5 µM
TGI (OVCAR-3 ovarian): 66.3 µM
TGI (OVCAR-4 ovarian): 33.6 µM
TGI (OVCAR-5 ovarian): 34.8 µM
TGI (OVCAR-8 ovarian): 50.7 µM
TGI (PC-3 prostate): 58.5 µM
TGI (RPMI-8226 leukemia): 31.2 µM
TGI (RXF 393 renal): 36 µM
TGI (SF-268 CNS): > 100 µM
TGI (SF-295 CNS): 57.5 µM
TGI (SF-539 CNS): 36.1 µM
TGI (SK-MEL-5 melanoma): 26.5 µM
TGI (SK-OV-3 ovarian): > 100 µM
TGI (SN12C renal): 35.8 µM
TGI (SNB-19 CNS): 26.8 µM
TGI (SR leukemia): 69.9 µM
TGI (SW-620 colon): 50.8 µM
TGI (T-47D breast): 57.5 µM
TGI (TK-10 renal): 86.4 µM
TGI (U251 CNS): 28 µM
TGI (UACC-257 melanoma): 44.5 µM
TGI (UACC-62 melanoma): 25.1 µM
TGI (UO-31 renal): 34.7 µM
